# According to ChEMBL document CHEMBL3734746, “Monoamine oxidase inhibitory activities of heterocyclic chalcones” (Bioorg Med Chem Lett, 2015):
# Key:
# Homo sapiens = species on record: Homo sapiens; test: Selectivity index, ratio of IC50 for human MAO-A to IC50 for human MAO-B
# [1] = molecular target: T1, Amine oxidase [flavin-containing] A (Homo sapiens, UniProt P21397); test: Inhibition of human MAO-A expressed in baculovirus infected BT1 cells microsome fraction by fluorescence spectrometry
# T1 sequence (P21397 whole entry): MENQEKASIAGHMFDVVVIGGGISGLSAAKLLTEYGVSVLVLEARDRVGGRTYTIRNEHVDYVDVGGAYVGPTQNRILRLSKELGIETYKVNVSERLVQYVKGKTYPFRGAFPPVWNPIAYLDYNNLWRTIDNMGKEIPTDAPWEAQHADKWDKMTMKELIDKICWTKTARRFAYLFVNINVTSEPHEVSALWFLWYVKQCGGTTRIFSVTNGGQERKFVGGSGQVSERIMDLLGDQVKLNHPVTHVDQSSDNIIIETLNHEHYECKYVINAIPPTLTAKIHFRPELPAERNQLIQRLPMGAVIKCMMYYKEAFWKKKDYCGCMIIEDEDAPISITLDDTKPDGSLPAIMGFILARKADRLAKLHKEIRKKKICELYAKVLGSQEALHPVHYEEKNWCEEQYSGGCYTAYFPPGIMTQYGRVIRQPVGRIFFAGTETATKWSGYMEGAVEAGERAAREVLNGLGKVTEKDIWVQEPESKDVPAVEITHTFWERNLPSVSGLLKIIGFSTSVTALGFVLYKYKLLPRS
# [2] = molecular target: T2, Amine oxidase [flavin-containing] B (Homo sapiens, UniProt P27338); test: Inhibition of human MAO-B expressed in baculovirus infected BT1 cells microsome fraction by fluorescence spectrometry
# T2 sequence (P27338 whole entry): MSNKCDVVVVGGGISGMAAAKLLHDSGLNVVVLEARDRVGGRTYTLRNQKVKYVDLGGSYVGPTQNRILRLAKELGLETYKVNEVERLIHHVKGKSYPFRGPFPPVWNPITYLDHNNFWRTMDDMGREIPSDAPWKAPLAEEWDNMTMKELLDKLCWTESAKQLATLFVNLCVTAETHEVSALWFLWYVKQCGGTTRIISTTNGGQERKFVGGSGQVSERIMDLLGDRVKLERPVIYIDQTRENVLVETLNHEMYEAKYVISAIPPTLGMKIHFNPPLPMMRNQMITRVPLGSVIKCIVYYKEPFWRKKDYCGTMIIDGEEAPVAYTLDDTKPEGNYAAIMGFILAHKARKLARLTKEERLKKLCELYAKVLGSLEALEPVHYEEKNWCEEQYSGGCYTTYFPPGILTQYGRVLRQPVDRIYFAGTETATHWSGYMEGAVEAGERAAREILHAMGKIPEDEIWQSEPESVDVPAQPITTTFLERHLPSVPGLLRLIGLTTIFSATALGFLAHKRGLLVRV
# [3] = molecular target: T1, Amine oxidase [flavin-containing] A; test: Irreversible inhibition of human MAO-A expressed in baculovirus infected BT1 cells microsome fraction assessed as enzyme activity recovered at 10 times of IC50 concentration preincubated for 30 mins followed by dilution to 0.1 times of IC50 concentration by fluorescence spectrometry; design: scale not given: the % may be the effect or the level left
# [4] = Cytotoxicity against human HeLa cells by MTT assay; format: cell-based
# [5] = molecular target: T1, Amine oxidase [flavin-containing] A; test: Reversible inhibition of human MAO-A expressed in baculovirus infected BT1 cells microsome fraction assessed as enzyme activity recovered at 100 times of IC50 concentration preincubated for 30 mins followed by dilution to IC50 concentration by fluorescence spectrometry; design: scale not given: the % may be the effect or the level left
# [6] = Cytotoxicity against human HeLa cells assessed as viable cells at 1 uM by MTT assay; format: cell-based; conditions: read-out: Activity
# [7] = molecular target: T2, Amine oxidase [flavin-containing] B; test: Reversible inhibition of human MAO-B expressed in baculovirus infected BT1 cells microsome fraction assessed as enzyme activity recovered at 100 times of IC50 concentration preincubated for 30 mins followed by dilution to IC50 concentration by fluorescence spectrometry; design: scale not given: the % may be the effect or the level left
# [8] = molecular target: T2, Amine oxidase [flavin-containing] B; test: Reversible inhibition of human MAO-B expressed in baculovirus infected BT1 cells microsome fraction assessed as enzyme activity recovered at 10 times of IC50 concentration preincubated for 30 mins followed by dilution to 0.1 times of IC50 concentration by fluorescence spectrometry; design: scale not given: the % may be the effect or the level left
# [9] = Cytotoxicity against human HeLa cells assessed as viable cells at 10 uM by MTT assay; format: cell-based; conditions: read-out: Activity
# [10] = molecular target: T1, Amine oxidase [flavin-containing] A; test: Reversible inhibition of human MAO-A expressed in baculovirus infected BT1 cells microsome fraction assessed as enzyme activity recovered at 10 times of IC50 concentration preincubated for 30 mins followed by dilution to 0.1 times of IC50 concentration by fluorescence spectrometry; design: scale not given: the % may be the effect or the level left
# [11] = molecular target: T2, Amine oxidase [flavin-containing] B; test: Reversible inhibition of human MAO-B expressed in baculovirus infected BT1 cells microsome fraction assessed as residual enzyme activity at 4 times of IC50 concentration preincubated for 15 mins followed by dialysis for 24 hrs by fluorescence spectrometry relative to control
# [12] = molecular target: T2, Amine oxidase [flavin-containing] B; test: Inhibition of human MAO-B expressed in baculovirus infected BT1 cells microsome fraction assessed as residual enzyme activity at 4 times of IC50 concentration for 15 mins by fluorescence spectrometry relative to control; conditions: 0.25 h
Structure (SMILES),Ratio IC50 (Homo sapiens),IC50 [1] [µM],IC50 [2] [µM],further results
COc1ccc(C(=O)/C=C/c2ccc(Cl)s2)c(O)c1,54,9.99,0.185,
C#CCN(C)[C@H](C)Cc1ccccc1 [SELEGILINE],,,,Activity [3]: 1.2%
COc1ccc(C(=O)/C=C/c2cccc(Cl)c2)cn1,46,15.3,0.33,
O=C(/C=C/c1cccc(Cl)c1)c1ccc[nH]1,44,143,3.27,
O=C(/C=C/c1ccc(C(F)(F)F)cc1)c1ccc[nH]1,,3.81,0.83,CC50 [4]: 28.2 µM; Activity [5]: 67%; viability at 1 µM [6]: 77.5%; Activity [7]: 32%; Activity [8]: 85%; viability at 10 µM [9]: 4.66%; Activity [10]: 90%
O=C(/C=C/c1ccc(F)c(Br)c1)c1ccc(Cl)s1,91,10.5,0.116,
O=C(/C=C/c1ccc(F)c(Br)c1)c1ccc[nH]1,11,8.98,0.803,viability at 1 µM [6]: 99.4%; Activity [7]: 60%; Activity [8]: 81%; viability at 10 µM [9]: 98%
C#CCN(C)Cc1ccccc1 [PARGYLINE],,,,Activity [3]: 1.2%
O=C(/C=C/c1ccc(C(F)(F)F)cc1)c1ccc(Cl)s1,57,7.56,0.133,
O=C(/C=C/c1cccc(C(F)(F)F)c1)c1ccc[nH]1,191,267,1.4,
Cc1ccc(C(=O)/C=C/c2ccc(F)c(Br)c2)s1,240,16.1,0.067,viability at 1 µM [6]: 104%; Activity [11]: 83%; Activity [7]: 5%; Activity [8]: 26%; Activity [12]: 18%; viability at 10 µM [9]: 95.7%
